Test results from patent EP4755396A1, “TREATMENT OF P53 GENE MUTATION OR DEFECT NEGATIVE CANCER AND TUMOR PATIENTS” (Ascentawits Pharmaceuticals, Ltd., priority 2023, dated 2025).
Where two headings read alike, the source gives them in different places.

Experiments:
[1] = system: HPAF-II cells; assay: In vitro cell proliferation inhibition (96-well, CTG, 72 hours); format: cell-based; details: Homo sapiens, HPAF-II cells, 72 hours; for inhibition at 7.5 µM: Nutlin-3 7.5 µM; for inhibition at 10 µM: Nutlin-3 10 µM; for inhibition at 15 µM: Nutlin-3 15 µM
Experimental: (§1) • 1) H460 and HPAF-II cell suspensions were added to a 96-well plate at 100 µL per well, with a cell density of 2000 /well and 20000/well, respectively. • 2) The cells were cultured overnight in an incubator at 37°C, 5% CO2. • 3) Compound Treatment
(§2) Combination therapy: After 24 hours of cell plating, 99 µL of growth medium was supplied to each well. Each well was added with 0.5 µL of Nutlin-3 or RITA, shaken gently to ensure even mixing, and then placed in an incubator for 2 hours. Then each well was added with 0.5µL of test compounds at different concentrations, shaken gently to ensure even mixing, and then placed at 37°C, 5% CO2 in an incubator.
(§3) Monotherapy: After 24 hours of cell plating, 99.5 µL of growth medium was supplied to each well. Then each well was added with 0.5µL of test compounds at different concentrations, shaken gently to ensure even mixing, and then placed at 37°C, 5% CO2 in an incubator.
(§4) 4) The cell plate was placed in the incubator for 72 hours.
(§5) 5) The cell plate to be tested was placed at room temperature to equilibrium for 30 minutes, and 100µL of medium was discarded per well.
(§6) 6) 25µL of CTG reagent was added to each well, placed at a fast shaker to shake for 2 minutes, and placed at room temperature away from light for 30 minutes.
(§7) 7) The chemiluminescence signal value was read using a multifunctional microplate reader with a reading time of 1000 ms. The corresponding inhibition rate data were calculated.

[2] = system: H460 cells; assay: In vitro cell proliferation inhibition under normoxia (96-well, CTG, 72 hours); format: cell-based, human; details: Homo sapiens, NCI-H460, H460 cells, 72 hours; for inhibition at 0.25 µM: Nutlin-3 0.25 µM; for inhibition at 0.5 µM: Nutlin-3 0.5 µM; for inhibition at 1 µM: Nutlin-3 1 µM
Experimental: Overview of the experimental process • 1) H460 cell suspension was added to a 96-well plate at 100 µL per well, with a cell density of 2000 /well. • 2) The cells were cultured overnight in an incubator at 37°C, 5% CO2. • 3) Compound Treatment
Monotherapy: After 24 hours of cell plating, each well was supplied with 99.5 µL of growth medium then added with 0.5µL of test compounds at different concentrations, shaken gently to ensure even mixing, and then placed at 37°C, 5% CO2 in an incubator.
as §2, with “plating, each well was supplied with” for “plating,”, “then” for “was supplied to each well. Each well was”, “0.5µL” for “0.5 µL”, “the combined action compound Nutlin-3,” for “Nutlin-3 or RITA,”
as §4, §5, §6
7) The chemiluminescence signal value was read using a multifunctional microplate reader with a reading time of 1000 ms.
8) IC50 was calculated with Graph Pad Prism 5 software.
as §1, §2, §3, §7
• 1) NCI-H460, NCI-H460 P53KO # 1 cell suspensions were added to a 96-well plate at 100 µL per well, with a cell density of 2000 /well. • 2) The cells were cultured overnight in an incubator at 37°C, 5% CO2. • 3) Compound Treatment
as §2, with “of” for “of growth”, “0.5µL” for “0.5 µL”, “combined action compound,” for “Nutlin-3 or RITA,”
8) The ICso (half maximal inhibitory concentration) values were calculated using GraphPad Prism 5 software.

[3] = system: H460 cells; assay: Cell cycle G2/M arrest, PI staining flow cytometry; format: cell-based; details: first experiment, 0.1 nM AST-3424, 5 µM Nutlin-3, 24 hours, combination: AST-3424 first (Figure 5)
Experimental: Overview of the experimental process: • 1) H460/HPAF-II cell suspensions were added to a 24-well plate, with a cell density of 100000 /well and 995 µL of medium per well. • 2) The cells were cultured overnight in an incubator at 37°C, 5% CO2. • 3) Compound Treatment
4) The cells were digested, centrifuged at 1000 g at 4°C, washed once with pre-cooled PBS, centrifuged at 1000 g at 4°C, and fixed with 1 mL of pre-cooled 70% ethanol at -20°C overnight.
5) The cells were centrifuged at 3000g at 4°C, washed once with pre-cooled PBS (phosphate buffer), centrifuged at 3000g at 4°C. Prepare PI staining solution. The cells were stained at 37°C away from light for 30 minutes, and stored in an ice bath away from light. Flow cytometric detection was performed on the same day, and the proportion of cells in different cell cycle phases was analyzed using FlowJo.

## COc1ccc(C2=NC(c3ccc(Cl)cc3)C(c3ccc(Cl)cc3)N2C(=O)N2CCNC(=O)C2)c(OC(C)C)c1 (racemic) [Nutlin-3]
[1]; AST 20 nM, AST+Nutlin-3 20+7.5, read-out: Inhibition rate result, experimental group 1
  inhibition at 7.5 µM: 8.54%
[1]; AST 20 nM, AST+Nutlin-3 20+10, read-out: Inhibition rate result, experimental group 2
  inhibition at 10 µM: 52.5%
[1]; AST 20 nM, AST+Nutlin-3 20+15, read-out: Inhibition rate result, experimental group 3
  inhibition at 15 µM: 73.9%
[1]; AST 60 nM, AST+Nutlin-3 60+7.5, read-out: Inhibition rate result, experimental group 4
  inhibition at 7.5 µM: 8.54%
[1]; AST 60 nM, AST+Nutlin-3 60+10, read-out: Inhibition rate result, experimental group 5
  inhibition at 10 µM: 52.5%
[1]; AST 60 nM, AST+Nutlin-3 60+15, read-out: Inhibition rate result, experimental group 6
  inhibition at 15 µM: 73.9%
[2]; AST 0.5 nM, AST+Nutlin-3 0.5+0.25, read-out: Inhibition rate result, experimental group 1
  inhibition at 0.25 µM: 11.8%
[2]; AST 0.5 nM, AST+Nutlin-3 0.5+0.5, read-out: Inhibition rate result, experimental group 2
  inhibition at 0.5 µM: 17.3%
[2]; AST 0.5 nM, AST+Nutlin-3 0.5+1, read-out: Inhibition rate result, experimental group 3
  inhibition at 1 µM: 18.3%
[2]; AST 1.5 nM, AST+Nutlin-3 1.5+0.25, read-out: Inhibition rate result, experimental group 4
  inhibition at 0.25 µM: 11.8%
[2]; AST 1.5 nM, AST+Nutlin-3 1.5+0.5, read-out: Inhibition rate result, experimental group 5
  inhibition at 0.5 µM: 17.3%
[2]; AST 1.5 nM, AST+Nutlin-3 1.5+1, read-out: Inhibition rate result, experimental group 6
  inhibition at 1 µM: 18.3%
[3]
  cell cycle (G0/G1, S, G2/M phases): did not significantly alter the cell cycle
